We go through one compound from publication PMC6850767, “Light-at-night exposure affects brain development through pineal allopregnanolone-dependent mechanisms” (eLife, 2019).

This test deals with T1, chicken mPRα (membrane progesterone receptor α) (Gallus gallus, UniProt C6KGD4).
T1 construct: gene PAQR7; membrane fraction or whole cells; band approx. 42 kDa
T1 sequence (C6KGD4 1-346): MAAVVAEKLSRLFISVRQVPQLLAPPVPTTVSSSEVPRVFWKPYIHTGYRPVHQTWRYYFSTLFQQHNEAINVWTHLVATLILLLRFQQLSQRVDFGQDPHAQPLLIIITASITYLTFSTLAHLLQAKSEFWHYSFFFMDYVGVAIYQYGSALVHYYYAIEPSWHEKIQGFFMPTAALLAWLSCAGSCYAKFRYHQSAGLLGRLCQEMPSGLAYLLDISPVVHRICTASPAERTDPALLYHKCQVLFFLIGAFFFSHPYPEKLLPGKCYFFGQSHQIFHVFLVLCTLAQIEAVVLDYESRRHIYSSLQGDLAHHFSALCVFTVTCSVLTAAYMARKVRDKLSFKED
Description: radioligand saturation binding, Scatchard plot, cell membrane fraction.

By Kd is commonly meant the equilibrium constant for the complex coming apart. Higher therefore signals lower affinity. On to `CC(=O)[C@H]1CC[C@H]2[C@@H]3CC[C@H]4C[C@H](O)CC[C@]4(C)[C@H]3CC[C@]12C` [compound 2, allopregnanolone], for which binding was put at a Kd of 11.8 ± 3.1 nM.
